Tests used:
Hep G2 cells = experiment: Soft agar colony formation assay; assay type: cell-based, human
Procedure: Hep G2 cells were purchased from ATCC. Hep G2 cells were maintained in Eagle's Minimum Essential Medium (Sigma, Cat No: #M0643) supplemented with 10% Fetal Bovine Serum (Hyclone, Cat No: SV30087.03), 2 mM L-glutamine, 100 units/mL penicillin and 100 μg/mL streptomycin (Life Technologies, Cat No: 10378-016). The soft agar assays were performed in concordance to the ETC approved method report for soft agar assay (ETC document number: RD0019). Briefly, 600 μL of 0.6% agar was added to 24-well plate (Corning, Cat No: 3738) to form the base layer. This is followed by the addition of 500 μL of 0.36% agar middle layer (containing 10′000Hep G2 cells). Lastly, 500 μL of fresh growth medium (containing the corresponding serially diluted compound) was added above the middle layer. The plates were incubated at 37° C. with 5% carbon dioxide in a humidified incubator for 1 to 2 weeks. 70 μL of thiazolyl blue tetrazolium bromide (5 mg/mL, Sigma Cat No: M5655) was added to each well and the plates were incubated at 37° C. for 2 h. Colonies were counted with GelCount® instrument (Oxford Optronix). The colony counts were plotted against compound concentrations using the Graphpad Prism software. In addition, the software was used to perform non-linear curve fitting and the calculation of IC50.

HepG2 = experiment: Cell proliferation assay (CellTiter-Glo), HepG2; assay type: cell-based; details: Homo sapiens, HepG2, 72 h; 3 days
Procedure: (§1) The cell proliferation assays were tested in several cell lines, including HepG2,HCT116, A549, HPAF-II, CFPAC-1,HuH7, SNU398,Hep3B, and HEK293. All cell lines are from ATCC. HepG2, HPAF-II and HEK293 are cultured in Eagle's MEM media supplemented with fetal bovine serum. HCT116 is cultured in McCoy media supplemented with fetal bovine serum. Huh-7 is cultured in DMEM low glucose (1000 mg/L glucose) with 10% FBS, 1% L-Glutamate and 1% Penicillin/Streptomycin. SNU398 is cultured in RPMI with 10% FBS with 1% L-Glutamate and 1% Penicillin/Streptomycin. Hep3B is cultured in Eagle's MEM with 10% FBS, 1% L-Glutamate and 1% Penicillin/Streptomycin. A549 is cultured in RPMI media supplemented with fetal bovine serum while CFPAC-1 is cultured in IMDM media supplemented with fetal bovine serum. All media and serum are purchased from Gibco (Lifetech). All cells were grown in a temperature controlled incubator at 37° C. and 5% CO2.
(§2) Cell proliferation assay was performed using CellTiter-Glo Luminescent Cell Viability Assay (Promega) following manufacturer's instructions. The cell-line of interest was treated with compounds that were serial diluted in its respective media. Plates were incubated for 3 days at 37° C. in 5% CO2. After 3 days, an equal volume of Cell Titer Glo reagent was added. Plates were rocked on a rotator for 2 h. 100 μL of each well were transferred to a 96-well opaque plate, and luminescence emitted was measured with the Tecan Safire II.

HCT-116 = experiment: Cell proliferation assay (CellTiter-Glo), HCT-116; assay type: cell-based; details: Homo sapiens, HCT-116, 72 h; 3 days
Procedure: as §1, §2

IC50 (Hep G2 cells; Homo sapiens, HepG2, Hep G2, soft agar): 0.23 µM
GI50 (HepG2): 18.9 µM
GI50 (HCT-116): 17.9 µM
SMILES: CCCOC(=O)N1CCN(C(=O)c2ccc3c(Cl)cc(-c4ccccc4)nc3c2)C[C@H]1C [B019, Propyl (R)-4-(4-chloro-2-phenylquinoline-7-carbonyl)-2-methylpiperazine-1-carboxylate]
maximum inhibition (Hep G2 cells; Hep G2, soft agar): 97.2%
inhibition at 10 µM (Hep G2 cells; Homo sapiens, HepG2, highest concentration tested (10 μM)): ~100%
